The numbers were not newly measured in patent publication US20040076646A1, “Haptenizing cancer cell components” (priority 2001, published 2004), which cites them from elsewhere.

The test system of this series is individuals / adult Americans.

With urushiol, the “amount of urushiol sufficient to induce the rash response” value (some individuals, molecular traces) was ≤ 2 µg. In addition, the “proportion of adult Americans who respond” value (≦50 μg of purified material) was 80-90%.
